# Source: US20150152469A1, “FLUORESCENT PROBE FOR HIGH-SENSITIVITY PANCREATIC FLUID DETECTION, AND METHOD FOR DETECTING PANCREATIC FLUID” (THE UNIVERSITY OF TOKYO, priority 2012, published 2015)
# Experiments:
# [1] = molecular target: T1, chymotrypsin (a-chymotrypsin derived from bovine pancreas) (Bos taurus, UniProt P00766); assay: Fluorescence assay using chymotrypsin; type: biochemical; conditions: 2.4 μM probe, 4.6 U chymotrypsin
# T1 construct: a-chymotrypsin derived from bovine pancreas; purchased SIGMA C4129-250MG; host or cells: bovine pancreas
# Experimental: 3 μL of a 2.4 mM gPhe-HMRC dimethylsulfoxide (DMSO) solution was dissolved in 3 mL of 0.1 M sodium phosphate buffer (pH 7.4) at a final concentration of 2.4 μM, 4.6 U of chymotrypsin (a-chymotrypsin derived from bovine pancreas: SIGMA C4129-250MG) was added thereto to conduct an enzymatic reaction at 37° C. The excitation wavelength was set to 501 nm.
# [2] = test system: chymotrypsin activities in pancreatic fluid; assay: In vitro fluorescence assay using human pancreatic fluid (gPhe-HMRG); type: biochemical
# Experimental: (§1) gPhe-HMRG synthesized in Example 1 and gGlu-HMRG, which has a glutamic acid residue, synthesized in Example 2 were used as fluorescent probes to evaluate enzymatic activities of pancreatic fluid obtained from patients of pancreatic cancer or bile duct cancer. 1 μL of a fluorescent probe DMSO solution (1 mM) was dissolved in 180 μL of a 0.1 M sodium phosphate buffer (pH 7.4) at a final concentration of […], 20 μL of a pancreatic fluid was added thereto, and an enzymatic reaction was carried out at 37° C. for 30 minutes. In the case of gPhe-HMRG, a probe solution to which 57 BAEE units of trypsin (bovine pancreas-derived trypsin: SIGMA T1426-100MG) had been added was used to carry out the same enzymatic reaction. In addition, as to inhibitor treatments for comparisons, 1 μL of an aqueous solution (10 mM) of a γ-glutamyltransferase inhibitor (GGs-Top: Wako Pure Chemical 075-05471) in the case of gGlu-HMRG, and 1 μL of a DMSO solution (10 mM) of a chymotrypsin inhibitor (chymostatin: SIGMA C7268) in the case of gPhe-HMRG were each added to probe solutions. For excitation wavelengths and fluorescence wavelengths of a fluorescence measurement device, 478-492 nm and 523-548 nm, respectively, were used.
# [3] = test system: chymotrypsin; assay: Fluorescence response to drain samples of pancreatic fluid, ascitic fluids and intestinal fluids (gPhe-HMRG, gPhe-HMRG-Try); type: biochemical, human
# Experimental: (§2) Furthermore, response behaviors of the fluorescent probes against body fluids other than pancreatic fluid were compared by using drain samples which were collected from patients who received resectional surgeries of the pancreas. With respect to a total of 76 samples of pancreatic fluid, ascitic fluids and intestinal fluids which were collected from 18 patients, changes in fluorescent intensities were measured for gGlu-HMRG, gPhe-HMRG, and trypsin-added gPhe-HMRG (gPhe-HMRG-Try).
# (§3) 180 μL of a probe solution (1.1 μM) was poured into each well of a 96-well microplate reader (SH-8000, Hitachi), and then, 20 μL of a collected sample was added thereto, followed by mixing them. The sample was incubated at 37° C., and fluorescence responses were measured after 5 minutes, 15 minutes and 30 minutes. Trypsin was added to gPhe-HMRG-Try at a final concentration of 0.525 μBTEE/μL. For an excitation wavelength and a fluorescence wavelength for the fluorescence measurement device, 490 nm and 520 nm, respectively, were used. The obtained results of fluorescence responses are shown as average values of respective samples in FIG. 5.
# [4] = Fluorescent imaging of human pancreatic fluid; conditions: for visualization of adhesion points of the pancreatic fluids: 50 μM probe solution sprayed on paper (gPhe-HMRG with trypsin), after several minutes from spraying
# Experimental: Fluorescent imaging of pancreatic fluids on an excised surface of the pancreas was carried out by using gPhe-HMRG and gGlu-HMRG as fluorescent probes. In consideration of, for example, cases where materials retaining pancreatic fluids, which are measurement subjects, are used during surgeries, wiping towels and filter paper for experiments (those having low background fluorescence from paper itself), which had been used in clinical practice, were used as the materials. For specific procedures, apiece of the pancreas immediately after being excised by surgical operations was collected, the wiping towel and filter paper was adhered to its excised surface, thereby adhering the pancreatic fluid thereto. Then, probe solutions of gPhe-HMRG (including trypsin) and gGlu-HMRG were sprayed to the adhered paper to start imaging. For the probe solutions, 10 μL of a DMSO solution (10 mM) of each probe was dissolved in 2 mL of RPMI 1640 medium (GINBO 11835) at a final concentration of 50 μM, and, for gPhe-HMRG, a solution obtained by adding trypsin (52.6 BTEE units) thereto was used. For an excitation filter and a fluorescence filter, long path filters of 435-480 nm and 490 nm, respectively, were used.
# [5] = molecular target: T2, γ-glutamyltransferase activity in a pancreatic fluid (Homo sapiens, UniProt P19440); assay: In vitro fluorescence assay using human pancreatic fluid (gGlu-HMRG); type: biochemical; conditions: 0.9 μM probe, 37° C., 30 minutes
# T2 construct: pancreatic fluid obtained from patients of pancreatic cancer or bile duct cancer; from tissue; host or cells: pancreatic fluid from patients with pancreatic cancer or bile duct cancer
# T2 sequence (P19440 1-380 limits assumed): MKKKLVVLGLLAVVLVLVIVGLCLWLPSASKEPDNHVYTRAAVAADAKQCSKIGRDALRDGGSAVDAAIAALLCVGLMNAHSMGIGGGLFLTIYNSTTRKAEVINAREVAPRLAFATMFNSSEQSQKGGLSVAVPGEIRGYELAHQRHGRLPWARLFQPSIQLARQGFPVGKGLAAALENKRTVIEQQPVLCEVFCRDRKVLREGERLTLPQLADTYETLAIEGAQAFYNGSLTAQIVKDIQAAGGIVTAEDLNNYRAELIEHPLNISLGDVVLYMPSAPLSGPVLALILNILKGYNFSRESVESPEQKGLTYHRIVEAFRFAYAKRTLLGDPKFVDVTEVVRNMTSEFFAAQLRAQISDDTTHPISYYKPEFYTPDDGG
# T2 sequence (P19440 381-569 limits assumed): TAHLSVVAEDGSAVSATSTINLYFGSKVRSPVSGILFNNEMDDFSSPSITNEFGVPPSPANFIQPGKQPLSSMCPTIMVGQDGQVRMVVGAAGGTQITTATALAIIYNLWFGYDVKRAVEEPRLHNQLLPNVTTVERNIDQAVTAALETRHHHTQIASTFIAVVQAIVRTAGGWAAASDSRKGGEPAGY
# Experimental: as §1
# [6] = test system: γ-glutamyltransferase; assay: Fluorescence response to drain samples of pancreatic fluid, ascitic fluids and intestinal fluids (gGlu-HMRG); type: biochemical, human; conditions: drain samples from patients, 37° C., 5, 15, 30 minutes
# Experimental: as §2, §3
Substance,"change in absorption by chymotrypsin addition ([1]; 0.1 M sodium phosphate buffer pH 7.4, 37° C.)","change in fluorescent intensity by chymotrypsin addition ([1]; pH 7.4, 37° C., excitation 501 nm)","time until fluorescent intensity reached saturation after chymotrypsin addition ([1]; fluorescence at 524 nm, 37° C.)","change in fluorescent intensity by addition of pancreatic fluid sample, trypsin included ([2]; 0.9 μM probe, 57 BAEE units trypsin, pancreatic fluid samples No. 1 to No. 5, 37° C., 30 minutes)",fluorescence response against chymotrypsinogen (precursor) ([2]; pancreatic fluid without trypsin addition),"fluorescent intensity when chymostatin (chymotrypsin inhibitor) was added ([2]; pancreatic fluid, trypsin, chymostatin added, 37° C., 30 minutes)","fluorescent response to body fluids, trypsin not added ([3]; pancreatic fluid, ascitic fluids, intestinal fluids from patients, 37° C., 5, 15, 30 minutes)",fluorescence response compared with gGlu-HMRG ([3]; trypsin added),visualization of adhesion points of the pancreatic fluids [4],fluorescence response at adhesion points of body fluids other than the pancreatic fluid ([4]; 50 μM probe with trypsin sprayed on paper),"change in fluorescent intensity by addition of pancreatic fluid sample ([5]; 20 μL pancreatic fluid (samples No. 1 to No. 5), no inhibitor)","fluorescent intensity when γ-glutamyltransferase-specific inhibitor (GGs-Top) was added ([5]; pancreatic fluid, inhibitor added)",fluorescent response to ascitic fluids [6],fluorescent response to pancreatic fluids [6],fluorescent response to intestinal fluids ([6]; compared with pancreatic fluids)
glutamyl-phenylalanine hydroxymethyl rhodamine green [gPhe-HMRG],significant increases,significant increases,about 600 seconds,remarkable increases in fluorescent intensities were observed in all the pancreatic fluid samples,hardly showed a fluorescence response,significantly decreased,significant fluorescent responses were not observed for all the body fluids,superior,successfully accomplished,any fluorescence response was not observed,–,–,–,–,–
γ-glutamyl hydroxymethyl rhodamine green [gGlu-HMRG],–,–,–,–,–,–,–,–,successfully accomplished,–,increases in fluorescent intensities were observed in all pancreatic fluid samples,significantly decreased,increases in fluorescent intensities were observed,an increase in fluorescent intensities was observed,"a larger increase in fluorescent intensities was observed for intestinal fluids, than for the case of pancreatic fluids"
